Reference: patent US8227422B2, “Peptides and compounds that bind to a receptor” (Glaxosmithkline LLC, priority 1996, dated 2012)
Where “and” joins values, the source holds several entries; their conditions need not be identical. Equal values may be shown once. Read-outs that look alike come from different tables or passages of the source. Where a SMILES comes first, the peptide text is derived from it.

What was measured:
[1] = molecular target: T1, TPO-R (Homo sapiens, UniProt P40238); experiment: Competition binding assay (equilibrium binding ELISA, MBP-TPO156 tracer) on immobilized TPO-R; conditions: read-out: IC50
T1 construct: made in house
T1 sequence (P40238 26-491 limits assumed): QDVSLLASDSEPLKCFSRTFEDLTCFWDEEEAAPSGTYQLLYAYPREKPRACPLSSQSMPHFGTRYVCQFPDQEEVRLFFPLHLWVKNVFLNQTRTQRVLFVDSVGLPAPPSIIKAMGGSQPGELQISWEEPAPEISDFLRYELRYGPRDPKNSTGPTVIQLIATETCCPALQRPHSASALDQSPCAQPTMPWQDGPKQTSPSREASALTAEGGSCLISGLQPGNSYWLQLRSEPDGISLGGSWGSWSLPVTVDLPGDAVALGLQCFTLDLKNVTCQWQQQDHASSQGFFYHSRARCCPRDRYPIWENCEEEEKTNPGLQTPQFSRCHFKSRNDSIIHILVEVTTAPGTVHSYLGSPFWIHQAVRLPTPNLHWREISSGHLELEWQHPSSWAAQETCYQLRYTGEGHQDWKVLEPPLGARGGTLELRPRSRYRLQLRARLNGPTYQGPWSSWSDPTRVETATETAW
Procedure: A variety of methods can be used to evaluate IC50 values. For example, an equilibrium binding ELISA assay, using either MBP-TPO or lacI-peptide tracer, was used to determine whether the peptides inhibit the binding of TPO to the extracellular domain of the TPO receptor. Typically, the IC50 value were determined using the free peptide. The IC50 value can be determined using the free peptide, which optionally can be C-terminally amidated, or can be prepared as an ester or other carboxy amide.
Binding affinities of chemically synthesized peptides for TPO-R were measured in a competition binding assay. The wells of a microtiter plate were coated with 1 mg streptavidin, blocked with PBS/1% BSA, followed by 50 ng of biotinylated anti-receptor immobilizing antibody (Ab179). The wells were then treated with a 1:10 dilution of soluble TPO-R harvest. Various concentrations of peptide or peptide mimetic were mixed with a constant amount of a truncated form of TPO consisting of residues 1-156 fused to the C-terminus of maltose binding protein (MBP-TPO156). The peptide MBP-TPO156 mixtures were added to the TPO-R coated wells, incubated for 2 hours at 4° C. and then washed with PBS. The amount of MBP-TPO156 that was bound at equilibrium was measured by adding a rabbit anti-sera directed against MBP, followed by alkaline phosphatase conjugated goat anti-rabbit IgG. The amount of alkaline phosphatase in each well was then determined using standard methods.
The assay is conducted over a range of peptide concentrations and the results are graphed such that the y axis represents the amount of bound MBP-TPO156 and the x axis represents the concentration of peptide or peptide mimetic.

[2] = molecular target: T2, human TPO-R (transfected Ba/F3 cells) (Homo sapiens, UniProt P40238); experiment: Thrombopoietin dependent cell proliferation assay (MTT), TPO-R transfected Ba/F3 cells; format: cell-based
T2 construct: Murine IL-3 dependent Ba/F3 cells were transfected with full length human TPO-R; expressed in transfected cells; host or cells: murine Ba/F3 cells
T2 sequence (P40238 26-635): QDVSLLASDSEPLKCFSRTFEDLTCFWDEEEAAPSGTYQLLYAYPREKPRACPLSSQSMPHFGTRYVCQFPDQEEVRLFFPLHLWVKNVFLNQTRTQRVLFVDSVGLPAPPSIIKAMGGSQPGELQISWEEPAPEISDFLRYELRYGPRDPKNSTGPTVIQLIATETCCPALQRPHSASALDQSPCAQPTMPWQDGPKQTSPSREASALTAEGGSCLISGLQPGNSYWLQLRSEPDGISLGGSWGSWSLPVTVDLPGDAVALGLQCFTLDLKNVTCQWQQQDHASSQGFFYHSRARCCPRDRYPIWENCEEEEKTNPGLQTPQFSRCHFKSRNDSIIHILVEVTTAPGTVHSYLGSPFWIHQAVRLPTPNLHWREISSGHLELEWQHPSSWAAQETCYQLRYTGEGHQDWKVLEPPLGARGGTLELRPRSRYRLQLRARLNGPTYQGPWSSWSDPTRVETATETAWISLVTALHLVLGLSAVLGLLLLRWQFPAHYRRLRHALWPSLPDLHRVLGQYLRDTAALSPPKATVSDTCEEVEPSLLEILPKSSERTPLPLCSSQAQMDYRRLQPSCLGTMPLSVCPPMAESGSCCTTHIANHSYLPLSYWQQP
Procedure: Bioactivity of the peptides can be measured using a thrombopoietin dependent cell proliferation assay. Murine IL-3 dependent Ba/F3 cells were transfected with full length human TPO-R. In the absence of IL-3 (WEHI-3 conditioned media), these cells are dependent on TPO for proliferation.
The cells were grown in complete RPMI-10 media, containing 10% WEHI-3 conditioned media, then washed twice in PBS, resuspended in media which lacked WEHI-3 conditioned media, and added to wells containing dilutions of peptide or TPO at 2×10^4 cells/well. The cells were incubated for 48 hours at 37° C. in a humidified 5% CO2 atmosphere and metabolic activity was assayed by the reduction of MTT to formazan, with absorbance at 570 nm measured on an ELISA plate reader.

[3] = molecular target: T3, TPO receptor (Homo sapiens, UniProt P40238); experiment: Microphysiometer assay: rate of acidification of extracellular medium on TPO receptor stimulation; format: cell-based
T3 sequence (P40238 26-635): T2 sequence (P40238 26-635)
Procedure: In this example cyclized compounds were subjected to three assays. […] Finally, a microphysiometer (Molecular Devices Corp.) assay was performed. […] The ranges for EC50 are symbolically indicated as for IC50 described above.

[4] = test system: marrow cells of Balb/C mice (mouse receptor); experiment: Mouse marrow cells in liquid culture, AChE-positive megakaryocyte outgrowth; format: cell-based; conditions: for Response (AChE-positive megakaryocytes): 7 days liquid culture
Procedure: To assess the feasibility of mice as a convenient test species, several in vitro experiments, designed to measure the activity of the test compounds on the mouse receptor, have been done. First, marrow cells, harvested from the femurs of 8 to 9 week one Balb/C mice, were incubated for 7 days in liquid culture with either rhuTPO or various concentrations of the test peptides. At the end of the incubation period, the cultures were concentrated by Cytospin, stained for acetylcholinesterase (AChE, a diagnostic of mouse megakaryocytes), and counted by microscopic analysis. One (X) nM rhuTPO gave rise to the outgrowth of very large (>40 um) non-adherent cells that stain for AChE. These cells appear to be mature megakaryocytes. From an initial seeding of 10^6 total marrow cells/ml (in 50 ml cultures) an estimated 1 to 2×10^6 megakaryocytes developed. This responce to TPO was designated as “maximal”. Control cultures containing no added growth factors produced very few AChE-positive cells. […] This finding was the first evidence that this peptide family is active on the murine receptor. In a second experiment, marrow cells were harvested and cultured in semi-solid medium (methylcellulose) containing either no factors, 1 nM rhuTPO, or 10 uM Peptide A. After 7 days in culture, colonies of large cell (presumed to be megakaryocytes) were counted and grouped into small colonies (3-5 cells) or large colonies (greater than 6 cells). TPO and the test peptides both produced substantially more colonies of both sized than did the negative control cultures.

[5] = test system: marrow cells (Mk precursor cell population); experiment: Mouse marrow cells in semi-solid medium (methylcellulose), colonies of large cells; format: cell-based; conditions: 1 nM TPO; 7 days in methylcellulose; replicates #1-1 to #2-2
Procedure: To assess the feasibility of mice as a convenient test species, several in vitro experiments, designed to measure the activity of the test compounds on the mouse receptor, have been done. First, marrow cells, harvested from the femurs of 8 to 9 week one Balb/C mice, were incubated for 7 days in liquid culture with either rhuTPO or various concentrations of the test peptides. At the end of the incubation period, the cultures were concentrated by Cytospin, stained for acetylcholinesterase (AChE, a diagnostic of mouse megakaryocytes), and counted by microscopic analysis. One (X) nM rhuTPO gave rise to the outgrowth of very large (>40 um) non-adherent cells that stain for AChE. These cells appear to be mature megakaryocytes. From an initial seeding of 10^6 total marrow cells/ml (in 50 ml cultures) an estimated 1 to 2×10^6 megakaryocytes developed. This responce to TPO was designated as “maximal”. Control cultures containing no added growth factors produced very few AChE-positive cells. […] In a second experiment, marrow cells were harvested and cultured in semi-solid medium (methylcellulose) containing either no factors, 1 nM rhuTPO, or 10 uM Peptide A. After 7 days in culture, colonies of large cell (presumed to be megakaryocytes) were counted and grouped into small colonies (3-5 cells) or large colonies (greater than 6 cells). […]

[6] = Table 4, cyclized compounds, read-out: EC50 (nM) Proliferation
[7] = Table 4, cyclized compounds, microphysiometer, read-out: EC50 (nM) Microonys

Molecule	IC50 ([1]; Table 4, cyclized compounds) [nM]	EC50 [2, 6] [nM]	EC50 [3, 7] [nM]	also measured
CC[C@H](C)[C@@H]1NC(=O)[C@H](Cc2c[nH]c3ccccc23)NC(=O)[C@H](CCC(=O)O)NC(=O)[C@H](CCCNC(=N)N)NC(=O)[C@H](CC(C)C)NC(=O)[C@H]([C@@H](C)O)NC(=O)[C@@H]2CCCN2C(=O)CNC(=O)[C@H](CC(=O)O)NC(=O)[C@H](C)NC(=O)CSC(C)(C)[C@@H](C(N)=O)NC(=O)[C@H](Cc2ccccc2)NC(=O)[C@H](CO)NC1=O (HELM PEPTIDE1{[O=C(C[*:3])[*:2]].A.D.G.P.T.L.R.E.W.I.S.F.[Pen].[am]}$PEPTIDE1,PEPTIDE1,1:R3-14:R3$$$V2.0)	≤ 200000	< 200000	< 200000	–
CC[C@H](C)[C@@H]1NC(=O)[C@H](Cc2c[nH]c3ccccc23)NC(=O)[C@H](CCC(=O)O)NC(=O)[C@H](CCCNC(=N)N)NC(=O)[C@H](CC(C)C)NC(=O)[C@H]([C@@H](C)O)NC(=O)[C@@H]2CCCN2C(=O)CNC(=O)[C@H](CC(=O)O)NC(=O)[C@H](C)NC(=O)[C@@H](N)C(C)(C)SSC[C@@H](C(N)=O)NC(=O)[C@H](Cc2ccccc2)NC(=O)[C@H](CO)NC1=O (HELM PEPTIDE1{[Pen].A.D.G.P.T.L.R.E.W.I.S.F.C.[am]}$PEPTIDE1,PEPTIDE1,1:R3-14:R3$$$V2.0)	≤ 500	< 500	< 500	–
CC[C@H](C)[C@@H]1NC(=O)[C@H](Cc2c[nH]c3ccccc23)NC(=O)[C@H](CCC(=O)O)NC(=O)[C@H](CCCNC(=N)N)NC(=O)[C@H](CC(C)C)NC(=O)[C@H]([C@@H](C)O)NC(=O)[C@@H]2CCCN2C(=O)CNC(=O)[C@H](CC(=O)O)NC(=O)[C@H](C)NC(=O)[C@@H](N)CSSC[C@@H](C(N)=O)NC(=O)[C@H](CC2CCCCC2)NC(=O)[C@H](CO)NC1=O [F-CHA] (HELM PEPTIDE1{C.A.D.G.P.T.L.R.E.W.I.S.[Cha].C.[am]}$PEPTIDE1,PEPTIDE1,1:R3-14:R3$$$V2.0; N-terminus and C-terminus assumed)	–	–	–	IC50 ([1]; Table 5): ≤ 500 nM; EC50 ([2]; Table 5, substitutions in cyclized compound, read-out: EC50 (nM) Cell Prolif.): < 500 nM; EC50 ([3]; Table 5, value in parentheses, read-out: EC50 (nM), microphysiometer results given in parentheses): < 500 nM
S.A. alone: streptavidin alone [reference compound]	–	–	–	Response (AChE-positive megakaryocytes) ([4]; 1000 nM (putative 1:4 complex), maximal = 25–30% AChE staining cells): none
TPO: recombinant human TPO (thrombopoietin)	–	–	–	Response (AChE-positive megakaryocytes) ([4]; 1 nM): “maximal”; megakaryocytes developed ([4]; One (X) nM rhuTPO, initial seeding 10^6 total marrow cells/ml (50 ml cultures), 7 days): 1 to 2×10^6 megakaryocytes; colonies of 3–5 large cells [5]: 15 and 12 and 16 and 13; colonies of 6–12 large cells [5]: 6 and 1 and 8 and 3

Now from value to molecule, other results behind:

IC50 ([1]; Table 4, cyclized compounds) [nM]	EC50 [2, 6] [nM]	EC50 [3, 7] [nM]	Molecule	also measured
≤ 500	< 200000	< 200000	CC[C@H](C)[C@@H]1NC(=O)[C@H](Cc2c[nH]c3ccccc23)NC(=O)[C@H](CCC(=O)O)NC(=O)[C@H](CCCNC(=N)N)NC(=O)[C@H](CC(C)C)NC(=O)[C@H]([C@@H](C)O)NC(=O)[C@@H]2CCCN2C(=O)CNC(=O)[C@H](CC(=O)O)NC(=O)[C@H](C)NC(=O)[C@@H](N)CCSSCC[C@@H](C(N)=O)NC(=O)[C@H](Cc2ccccc2)NC(=O)[C@H](CO)NC1=O (HELM PEPTIDE1{[N[C@@H](CCS[*:3])C(=O)[*:2]].A.D.G.P.T.L.R.E.W.I.S.F.[O=C([C@H](CCS[*:3])N[*:1])[*:2]].[am]}$PEPTIDE1,PEPTIDE1,1:R3-14:R3$$$V2.0)	–
≤ 500	< 200000	< 200000	CC[C@H](C)[C@@H]1NC(=O)[C@H](Cc2c[nH]c3ccccc23)NC(=O)[C@H](CCC(=O)O)NC(=O)[C@H](CCCNC(=N)N)NC(=O)[C@H](CC(C)C)NC(=O)[C@H]([C@@H](C)O)NC(=O)[C@@H]2CCCN2C(=O)CNC(=O)[C@H](CC(=O)O)NC(=O)[C@H](C)NC(=O)CSCC[C@@H](C(N)=O)NC(=O)[C@H](Cc2ccccc2)NC(=O)[C@H](CO)NC1=O (HELM PEPTIDE1{[O=C(C[*:3])[*:2]].A.D.G.P.T.L.R.E.W.I.S.F.[O=C([C@H](CCS[*:3])N[*:1])[*:2]].[am]}$PEPTIDE1,PEPTIDE1,1:R3-14:R3$$$V2.0)	–
